Results as given in PubChem BioAssay AID248 (DTP/NCI, 2004).
Toxic doses and inconclusive results are not listed.

Test system: L1210 leukemia ip in BDF1 mice, survival T/C
Test: NCI In Vivo Anticancer Drug Screen. Data for tumor model L1210 Leukemia (intraperitoneal) in B6D2F1 (BDF1) mice
Details: endpoint: mean survival time, higher = longer survival
Summary of the method: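 Each compound was tested against a transplantable tumor grown in mice. The endpoint was survival, with treated animals benchmarked against vehicle controls as a simple ratio.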

[1] = dose: 100.0 mg/kg/injection, schedule: Q01DX009 (ip), vehicle: saline with Tween-80
[2] = dose: 100.0 mg/kg/injection, schedule: Q01DX009 (ip), vehicle: Klucel (hydroxypropylcellulose) (HPC)
[3] = dose: 200.0 mg/kg/injection, schedule: Q01DX009 (ip), vehicle: Klucel (hydroxypropylcellulose) (HPC)

## COc1ccc(/C=N\NC(=O)c2ccncc2)cc1O
dose: 100.0 mg/kg/injection, schedule: Q04DX002 (ip), vehicle: Klucel (hydroxypropylcellulose) (HPC)
  T/C: 118 % of control
dose: 200.0 mg/kg/injection, schedule: Q04DX002 (ip), vehicle: Klucel (hydroxypropylcellulose) (HPC)
  T/C: 106 % of control
dose: 400.0 mg/kg/injection, schedule: Q04DX002 (ip), vehicle: Klucel (hydroxypropylcellulose) (HPC)
  T/C: 106 % of control

## CCOC(=O)C(Cc1ccc(OCc2ccccc2)c(OCc2ccccc2)c1)(NC(C)=O)C(=O)OCC
dose: 100.0 mg/kg/injection, schedule: Q04DX003 (ip), vehicle: other
  T/C: 102 % of control
dose: 200.0 mg/kg/injection, schedule: Q04DX003 (ip), vehicle: other
  T/C: 100 % of control
dose: 400.0 mg/kg/injection, schedule: Q04DX003 (ip), vehicle: other
  T/C: 98 % of control

## CC1(C)c2ccccc2C(=O)C1(Br)Cc1ccccc1 (stereo not given)
[1]
  T/C: 90 % of control

## CC(=O)OCC1=C(COC(C)=O)C2OC1C1OC(=O)OC21 (stereo not given)
dose: 75.0 mg/kg/injection, schedule: Q01DX009 (ip), vehicle: Klucel (hydroxypropylcellulose) (HPC)
  T/C: 97 % of control
[2]
  T/C: 105 % of control
dose: 150.0 mg/kg/injection, schedule: Q01DX009 (ip), vehicle: Klucel (hydroxypropylcellulose) (HPC)
  T/C: 92 % of control
[3]
  T/C: 97 % of control
dose: 300.0 mg/kg/injection, schedule: Q01DX009 (ip), vehicle: Klucel (hydroxypropylcellulose) (HPC)
  T/C: 104 % of control
dose: 400.0 mg/kg/injection, schedule: Q01DX009 (ip), vehicle: Klucel (hydroxypropylcellulose) (HPC)
  T/C: 101 % of control

## O=C(CI)Nc1ccc(Br)cc1
dose: 6.25 mg/kg/injection, schedule: Q01DX009 (ip), vehicle: Klucel (hydroxypropylcellulose) (HPC)
  T/C: 86 % of control
dose: 12.5 mg/kg/injection, schedule: Q01DX009 (ip), vehicle: Klucel (hydroxypropylcellulose) (HPC)
  T/C: 91 % of control
dose: 25.0 mg/kg/injection, schedule: Q01DX009 (ip), vehicle: Klucel (hydroxypropylcellulose) (HPC)
  T/C: 86 % of control
dose: 35.0 mg/kg/injection, schedule: Q01DX009 (ip), vehicle: Klucel (hydroxypropylcellulose) (HPC)
  T/C: 98 % of control

## COc1ccc(C(=O)Nc2ccc(C3=NCCN3)cc2)cc1C(=O)Nc1ccc(C2=NCCN2)cc1
dose: 3.75 mg/kg/injection, schedule: Q01DX Z (ip), vehicle: saline
  T/C: 101 % of control
dose: 7.5 mg/kg/injection, schedule: Q01DX Z (ip), vehicle: saline
  T/C: 116 % of control
dose: 30.0 mg/kg/injection, schedule: Q01DX Z (ip), vehicle: saline
  T/C: 181 % of control
dose: 60.0 mg/kg/injection, schedule: Q01DX Z (ip), vehicle: saline
  T/C: 266 % of control
dose: 120.0 mg/kg/injection, schedule: Q01DX Z (ip), vehicle: saline
  T/C: 110 % of control

## CCOC(=O)NCCNC(=O)OCC
dose: 75.0 mg/kg/injection, schedule: Q01DX001 (ip), vehicle: Klucel (hydroxypropylcellulose) (HPC)
  T/C: 105 % of control
dose: 150.0 mg/kg/injection, schedule: Q01DX001 (ip), vehicle: Klucel (hydroxypropylcellulose) (HPC)
  T/C: 95 % of control
dose: 300.0 mg/kg/injection, schedule: Q01DX001 (ip), vehicle: Klucel (hydroxypropylcellulose) (HPC)
  T/C: 100 % of control

## CCCOC(=O)COc1ccccc1
dose: 100.0 mg/kg/injection, schedule: Q04DX003 (ip), vehicle: saline with Tween-80
  T/C: 96 % of control
dose: 200.0 mg/kg/injection, schedule: Q04DX003 (ip), vehicle: saline with Tween-80
  T/C: 96 % of control
dose: 400.0 mg/kg/injection, schedule: Q04DX003 (ip), vehicle: saline with Tween-80
  T/C: 93 % of control

## N#[N+]c1c([O-])[nH]c(=O)[nH]c1=O
dose: 50.0 mg/kg/injection, schedule: Q01DX009 (ip), vehicle: Klucel (hydroxypropylcellulose) (HPC)
  T/C: 95 % of control
[2]
  T/C: 107 % of control
[3]
  T/C: 88 % of control

## CC(C)(C)NC(=O)NCCCN1CCOCC1
dose: 100.0 mg/kg/injection, schedule: Q04DX002 (ip), vehicle: saline
  T/C: 96 % of control
dose: 200.0 mg/kg/injection, schedule: Q04DX002 (ip), vehicle: saline
  T/C: 90 % of control
dose: 400.0 mg/kg/injection, schedule: Q04DX002 (ip), vehicle: saline
  T/C: 96 % of control

## [O-][n+]1ccccc1C(c1ccccc1)c1ccccc1
dose: 50.0 mg/kg/injection, schedule: Q01DX009 (ip), vehicle: saline with Tween-80
  T/C: 90 % of control
[1]
  T/C: 90 % of control
dose: 200.0 mg/kg/injection, schedule: Q01DX009 (ip), vehicle: saline with Tween-80
  T/C: 90 % of control

## CC(C)C/C=C/C(=O)CC(=O)OC(C)C
dose: 75.0 mg/kg/injection, schedule: Q01DX001 (ip), vehicle: other
  T/C: 97 % of control
dose: 150.0 mg/kg/injection, schedule: Q01DX001 (ip), vehicle: other
  T/C: 101 % of control
dose: 300.0 mg/kg/injection, schedule: Q01DX001 (ip), vehicle: other
  T/C: 117 % of control
